Data taken from US7572799B2, “Pyrazolo[4,3-d]pyrimidines as Phosphodiesterase Inhibitors” (Pfizer Inc, priority 2003, dated 2009).

Each compound was assayed against PDE-5 (UniProt O76074) (assay: In vitro PDE inhibitory activity against PDE5 (batch method or scintillation proximity assay)). Conditions: representative compounds.
Format: biochemical, human
From the text: The compounds of the invention are inhibitors of cyclic guanylate monophosphate (cGMP)-specific phosphodiesterase type 5 (PDE-5 inhibitors).
The required PDE enzymes can be isolated from a variety of sources, including human corpus cavernosum, human and rabbit platelets, human cardiac ventricle, human skeletal muscle and bovine retina, essentially by a modification of the method of Thompson, W J et al.; Biochemistry 18(23), 5228-5237, 1979, as described by Ballard S A et al.; J. Urology 159(6), 2164-2171, 1998. In particular, cGMP-specific PDE5 and cGMP-inhibited cAMP PDE3 can be obtained from human corpus cavernosum tissue, human platelets or rabbit platelets; cGMP-stimulated PDE2 was obtained from human corpus cavernosum; calcium/calmodulin (Ca/CAM)-dependent PDE1 from human cardiac ventricle; cAMP-specific PDE4 from human skeletal muscle; and photoreceptor PDE6 from bovine retina. Phosphodiesterases 7-11 can be generated from full length human recombinant clones transfected into SF9 cells.
Assays can be performed either using a modification of the “batch”method of Thompson W J and Appleman M M; Biochemistry 10(2), 311-316, 1971, essentially as described by Ballard S A et al.; J. Urology 159(6), 2164-2171, 1998, or using a scintillation proximity assay for the direct detection of [^3H]-labelled AMP/GMP using a modification of the protocol described by Amersham plc under product code TRKQ7090/7100. In summary, for the scintillation proximity assay the effect of PDE inhibitors was investigated by assaying a fixed amount of enzyme in the presence of varying inhibitor concentrations and low substrate, (cGMP or cAMP in a 3:1 ratio unlabelled to [^3H]-labeled at a concentration of ˜⅓ Km, or less) such that IC50≅Ki. The final assay volume was made up to 100 μl with assay buffer [20 mM Tris-HCl pH 7.4, 5 mM MgCl2, 1 mg/ml bovine serum albumin]. Reactions were initiated with enzyme, incubated for 30-60 min at 30° C. to give <30% substrate turnover and terminated with 50 μl yttrium silicate SPA beads (containing 3 mM of the respective unlabelled cyclic nucleotide for PDEs 9 and 11).

In order of rising IC50:
1. Cc1ccnc(Nc2nc(N(C)C)nc3c(C(=O)O)nn(CC4CCOCC4)c23)c1 [Example 57]  100 nM
2. CCOCCn1nc(C(=O)O)c2nc(N(C)C)nc(NC3CCC3)c21 [Example 33]  100 nM
3. CCN(C)c1nc(Nc2cc(C)ccn2)c2c(n1)c(C(=O)O)nn2CC1CCOCC1 [Example 58]  100 nM
4. CCOCCn1nc(C(=O)O)c2nc(N(C)C(C)C)nc(NC3CC3)c21 [Example 34]  100 nM

Same assay, conditions: representative compounds, read-out: IC50

In order of rising IC50:
1. Cc1cccc(Nc2nc(N(C)C(C)C)nc3c(C(=O)O)nn(CCOCC(F)(F)F)c23)c1 [Example 138]  0.065 nM
2. CCN(C)c1nc(Nc2ccc(F)c(C)c2)c2c(n1)c(C(=O)O)nn2CCOCC(F)(F)F [Example 137]  0.068 nM
3. Cc1cc(Nc2nc(N(C)C(C)C)nc3c(C(=O)O)nn(CCOCC(F)(F)F)c23)ccc1F [Example 139]  0.071 nM
4. CCOCCn1nc(C(=O)OCCN(C)C)c2nc(N(C)C(C)C)nc(Nc3cc(C)ccn3)c21 [Example 147, 2-(Dimethylamino)ethyl 1-(2-ethoxyethyl)-5-[isopropyl(methyl)amino]-7-[(4-methylpyridin-2-yl)amino]-1H-pyrazolo[4,3-d]pyrimidine-3-carboxylate]  0.141 nM
5. CCOCCn1nc(C(=O)OC)c2nc(N(C)CC)nc(Nc3cc(C)ccn3)c21 [Example 2]  0.201 nM
6. CCOCCn1nc(C(=O)NS(C)(=O)=O)c2nc(N(C)CC)nc(Nc3cc(CO)ccn3)c21 [Example 153]  0.398 nM
7. CCCOCCn1nc(C(=O)NS(C)(=O)=O)c2nc(N(C)C(C)C)nc(Nc3cc(C)ccn3)c21 [Example 184, 5-[Isopropyl(methyl)amino]-7-[(4-methylpyridin-2-yl)amino]-N-(methylsulfonyl)-1-(2-propoxyethyl)-1H-pyrazolo[4,3-d]pyrimidine-3-carboxamide]  0.5 nM
8. Cc1ccnc(Nc2nc(N(C)C(C)C)nc3c(C(=O)O)nn(CCOC(C)C)c23)c1 [Example 111, 1-(2-Isopropoxyethyl)-5-(N-isopropyl-N-methylamino)-7-(4-methylpyridin-2-ylamino)-1H-pyrazolo[4,3-d]pyrimidine-3-carboxylic acid]  0.502 nM
9. CCOCCn1nc(C(=O)O)c2nc(N(C)C(C)C)nc(Nc3cc(C)ccn3)c21 [Example 110, 1-(2-Ethoxyethyl)-5-(N-isopropyl-N-methylamino)-7-(4-methylpyridin-2-ylamino)-1H-pyrazolo[4,3-d]pyrimidine-3-carboxylic acid]  0.564 nM
10. CCN(C)c1nc(Nc2cc(C)ccn2)c2c(n1)c(C(=O)NS(C)(=O)=O)nn2CCOCCCF [Example 175]  0.57 nM
11. CCOCCn1nc(C(=O)O)c2nc(N(C)C(C)C)nc(Nc3cc(C)ncn3)c21 [Example 123]  0.628 nM
12. CCOCCn1nc(C(=O)NS(C)(=O)=O)c2nc(N(C)CC)nc(Nc3cc(C)ncn3)c21 [Example 157]  0.771 nM
13. Cc1ccnc(Nc2nc(N(C)C(C)C)nc3c(C(=O)NS(C)(=O)=O)nn(CCOCC(F)F)c23)c1 [Example 181]  1.29 nM
14. CCN(CC)c1nc(Nc2cc(C)ccn2)c2c(n1)c(C(=O)NS(C)(=O)=O)nn2CCOCC(F)F [Example 182]  1.4 nM
15. CCOCCn1nc(C(=O)O)c2nc(N3CC[C@@H](OC)C3)nc(Nc3cc(C)ccn3)c21 [Example 13]  1.46 nM
16. CCOCCn1nc(C(=O)O)c2nc(N(C)C(C)C)nc(Nc3cc(C)cc(C)n3)c21 [Example 26]  1.64 nM
17. CCOCCn1nc(C(=O)O)c2nc(N(C)CC)nc(Nc3cccc(C)c3)c21 [Example 118, 1-(2-Ethoxyethyl)-5-[ethyl(methyl)amino]-7-[(3-methylphenyl)amino]-1H-pyrazolo[4,3-d]pyrimidine-3-carboxylic acid]  1.72 nM
18. CCCN(C)c1nc(Nc2cc(C)ccn2)c2c(n1)c(C(=O)O)nn2CCOCC [Example 15]  1.84 nM
19. CCOCCn1nc(C(=O)OCCN(C)C)c2nc(N(C)C)nc(Nc3cc(C)ccn3)c21 [Example 10, 2-(Dimethylamino)ethyl 5-dimethylamino-1-(2-ethoxyethyl)-7-(4-methylpyridin-2-ylamino)-1H-pyrazolo[4,3-d]pyrimidine-3-carboxylate]  1.86 nM
20. CCOCCn1nc(C(=O)O)c2nc(NC(C)C)nc(Nc3cc(C)ccn3)c21 [Example 54]  2.03 nM
21. CCOCCn1nc(C(=O)O)c2nc(N(C)C(C)C)nc(Nc3cccc(C)n3)c21 [Example 99]  2.45 nM
22. CCOCCn1nc(C(=O)O)c2nc(N(C)C(C)C)nc(Nc3ccc(F)c(F)c3)c21 [Example 90]  2.83 nM
23. Cc1ccnc(Nc2nc(N(C)C(C)C)nc3c(C(=O)O)nn(CCOCC(F)(F)F)c23)c1 [Example 126, 5-[Isopropyl(methyl)amino]-7-[(4-methylpyridin-2-yl)amino]-1-[2-(2,2,2-trifluoroethoxy)ethyl]-1H-pyrazolo[4,3-d]pyrimidine-3-carboxylic acid]  3.05 nM
24. CCOCCn1nc(C(=O)O)c2nc(N(CC)CCOC)nc(Nc3cc(C)ccn3)c21 [Example 52]  3.4 nM
25. CCOCCn1nc(C(=O)O)c2nc(N(C)CC)nc(Nc3cc(C)ccn3)c21 [Example 96]  3.65 nM
26. CCN(CC)c1nc(Nc2cc(C)ccn2)c2c(n1)c(C(=O)O)nn2CCOCC(F)(F)F [Example 128, 5-(Diethylamino)-7-[(4-methylpyridin-2-yl)amino]-1-[2-(2,2,2-trifluoroethoxy)ethyl]-1H-pyrazolo[4,3-d]pyrimidine-3-carboxylic acid]  3.94 nM
27. CCNc1nc(Nc2cc(C)ccn2)c2c(n1)c(C(=O)O)nn2CCOC(C)C [Example 63]  4.58 nM
28. CCOCCn1nc(C(=O)NS(C)(=O)=O)c2nc(N(C)C)nc(Nc3cc(C)ccn3)c21 [Example 114, N-[5-(Dimethylamino)-1-(2-ethoxyethyl)-7-(4-methylpyridin-2-ylamino)-1H-pyrazolo[4,3-d]pyrimidine-3-carbonyl]methanesulfonamide]  4.83 nM
29. CCCN(CC1CC1)c1nc(Nc2cc(C)ccn2)c2c(n1)c(C(=O)O)nn2CCOCC [Example 49]  4.92 nM
30. CCOCCn1nc(C(=O)O)c2nc(N3CCCC3)nc(Nc3cc(C)ccn3)c21 [Example 134, 1-(2-Ethoxyethyl)-7-[(4-methylpyridin-2-yl)amino]-5-pyrrolidin-1-yl-1H-pyrazolo[4,3-d]pyrimidine-3-carboxylic acid]  5.02 nM
31. CO[C@@H](C)Cn1nc(C(=O)O)c2nc(N(C)C(C)C)nc(Nc3cc(C)ccn3)c21 [Example 135, 5-[Isopropyl(methyl)amino]-1-[(2S)-2-methoxypropyl]-7-[(4-methylpyridin-2-yl)amino]-1H-pyrazolo[4,3-d]pyrimidine-3-carboxylic acid]  7.7 nM
32. Cc1ccnc(Nc2nc(N3CCCC3C)nc3c(C(=O)O)nn(CCOCC(F)(F)F)c23)c1 (centres unmarked) [Example 129, 7-[(4-Methylpyridin-2-yl)amino]-5-(2-methylpyrrolidin-1-yl)-1-[2-(2,2,2-trifluoroethoxy)ethyl]-1H-pyrazolo[4,3-d]pyrimidine-3-carboxylic acid]  7.78 nM
33. CCOCCn1nc(C(=O)O)c2nc(N(C)CC)nc(Nc3cc(C)ccc3F)c21 [Example 101]  8.45 nM
34. CCOCCn1nc(C(=O)O)c2nc(N[C@H](C)CC)nc(Nc3cc(C)ccn3)c21 [Example 56]  9.11 nM
35. CCOCCn1nc(C(=O)O)c2nc(N(C)CC)nc(Nc3cccc(CC)n3)c21 [Example 97]  9.74 nM
36. CCOCCn1nc(C(=O)O)c2nc(N(C)C(C)C)nc(Nc3ccncn3)c21 [Example 28]  11.6 nM
37. CCN(CC)c1nc(Nc2cc(C)ccn2)c2c(n1)c(C(=O)O)nn2C[C@@H](C)OC [Example 66]  13.5 nM
38. CCOCCn1nc(C(=O)NS(C)(=O)=O)c2nc(N(C)CC)nc(Nc3cccc(C)n3)c21 [Example 149]  14.4 nM
39. Cc1ccnc(Nc2nc(N(C)C3CCC3)nc3c(C(=O)O)nn(CCOCC(F)(F)F)c23)c1 [Example 130, 5-[Cyclobutyl(methyl)amino]-7-[(4-methylpyridin-2-yl)amino]-1-[2-(2,2,2-trifluoroethoxy)ethyl]-1H-pyrazolo[4,3-d]pyrimidine-3-carboxylic acid]  19.5 nM
40. CCOCCn1nc(C(=O)O)c2nc(N(C)C(C)C)nc(Nc3cccc(F)c3F)c21 [Example 93]  23.2 nM
41. CCOCCn1nc(C(=O)O)c2nc(N(C)C)nc(Nc3cc(CC)ccn3)c21 [Example 37]  23.9 nM
42. CCOCCn1nc(C(=O)O)c2nc(N(C)C(C)C)nc(NC3CCOCC3)c21 [Example 83]  27.8 nM
43. CCOCCn1nc(C(=O)O)c2nc(N(C)CC)nc(Nc3ccnc(C)n3)c21 [Example 73]  52.3 nM
44. CCOCCn1nc(C(=O)O)c2nc(N(C)C)nc(Nc3ccc(C)cn3)c21 [Example 24]  53.9 nM
45. CCOCCn1nc(C(=O)O)c2nc(N(C)C(C)C)nc(Nc3ccnc(C)n3)c21 [Example 72]  59.2 nM
46. CCOCCn1nc(C(=O)O)c2nc(N(C)C(C)C)nc(Nc3cnccn3)c21 [Example 29]  106 nM
